Literature values as cited in patent publication US20070281881A1, “Methods And Compositions Comprising Non-Peptide Small Molecules That Solubilize Beta Amyloid Peptide Fiber” (priority 2004, published 2007).

What was measured:
Aβ = Aβ (Homo sapiens, UniProt P05067); conditions: result in words, from cited studies
[1] = result in words, from cited studies

Aβ, sequence (P05067 672-713 limits assumed): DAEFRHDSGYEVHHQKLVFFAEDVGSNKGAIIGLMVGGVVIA

| Compound | binding to Aβ and effect on Aβ aggregation (Aβ) | crossing of the blood brain barrier [1] |
| --- | --- | --- |
| COc1ccc2[nH]cc(CCNC(C)=O)c2c1 [Melatonin] | binds and slows down Aβ aggregation | easily crosses the blood brain barrier |
| CN1CCCC1c1cccnc1 (stereo not drawn) [nicotine] | binds and slows down Aβ aggregation | – |
